Drawing on patent US12110294B2, “CD73 compounds” (Gilead Sciences, Inc., priority 2020, dated 2024), this text covers EC50 for 24 molecules.

The structures appear in SMILES notation. pEC50: −log10 of the molar value.

This assay concerns the target T1, CD73 activity in MDA-MB-231-GFP cells (Homo sapiens, UniProt P21589).
T1 construct: endogenous in cells; host or cells: MDA-MB-231-GFP cells
T1 sequence (P21589 27-549): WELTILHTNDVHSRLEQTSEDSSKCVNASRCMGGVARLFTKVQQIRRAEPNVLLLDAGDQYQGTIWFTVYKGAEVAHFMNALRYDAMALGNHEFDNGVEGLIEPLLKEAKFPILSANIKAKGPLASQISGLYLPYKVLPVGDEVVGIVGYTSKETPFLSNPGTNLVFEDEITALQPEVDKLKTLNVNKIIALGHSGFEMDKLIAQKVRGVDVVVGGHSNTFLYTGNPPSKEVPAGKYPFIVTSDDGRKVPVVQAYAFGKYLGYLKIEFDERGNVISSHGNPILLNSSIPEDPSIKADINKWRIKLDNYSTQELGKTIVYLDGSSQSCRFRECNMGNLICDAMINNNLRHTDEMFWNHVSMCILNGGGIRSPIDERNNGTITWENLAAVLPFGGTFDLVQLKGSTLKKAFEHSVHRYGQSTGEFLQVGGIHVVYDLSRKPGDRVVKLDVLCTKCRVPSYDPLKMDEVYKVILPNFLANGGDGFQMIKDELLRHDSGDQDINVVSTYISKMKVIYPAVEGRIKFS
Description: MDA-MB-231 Cell Based CD73 Activity Assay (DMEM). Conditions: 3000 cells per well, DMEM medium with 10% human plasma, overnight compound treatment, AMP 200 uM. The procedure:
MDA-MB-231 Cell Based CD73 Activity Assay (DMEM) MDA-MB-231-GFP cells were seeded in 384-well plates (Greiner 781946) at a density of 3000 cells per well in 50 μL of DMEM medium with 10% HP (human plasma). Cells were plated into assay plate with compounds pre-spotted, for an overnight compound treatment. 50 uL of 400 uM AMP (final concentration will be 200 uM) was added using Bio-tek dispenser. Plates were incubated for 100 mins. […] The samples were analyzed using Rapid fire.
In turn, `O=c1[nH]cc(-c2cc([C@H]3C[C@@H]3c3ccc(OC(F)(F)F)cc3F)c3nccn3n2)c(=O)[nH]1` (racemic) [Example 280, 5-(8-((1S,2S)-2-(2-fluoro-4-(trifluoromethoxy)phenyl)cyclopropyl)imidazo[1,2-b]pyridazin-6-yl)pyrimidine-2,4(1H,3H)-dione] gave a pEC50 of 7.11.
As for `COC(=O)c1ccc([C@H]2C[C@@H]2c2cc(-c3c[nH]c(=O)[nH]c3=O)nn3ccnc23)cc1` (racemic) [Example 281, methyl 4-((2S,2S)-2-(6-(2,4-dioxo-1,2,3,4-tetrahydropyrimidin-5-yl)imidazo[1,2-b]pyridazin-8-yl)cyclopropyl)benzoate], the figure is 8.08.
As for `COC(=O)c1cccc([C@H]2C[C@@H]2c2cc(-c3c[nH]c(=O)[nH]c3=O)nn3ccnc23)c1` (racemic) [Example 282, methyl 3-((2S,2S)-2-(6-(2,4-dioxo-1,2,3,4-tetrahydropyrimidin-5-yl)imidazo[1,2-b]pyridazin-8-yl)cyclopropyl)benzoate], the figure is 7.93.
As for `NC(=O)c1cccc([C@H]2C[C@@H]2c2cc(-c3c[nH]c(=O)[nH]c3=O)nn3ccnc23)c1` (racemic) [Example 284, 3-((1S,2S)-2-(6-(2,4-dioxo-1,2,3,4-tetrahydropyrimidin-5-yl)imidazo[1,2-b]pyridazin-8-yl)cyclopropyl)benzamide], the figure is 8.46; as for `CNC(=O)c1ccc([C@H]2C[C@@H]2c2cc(-c3c[nH]c(=O)[nH]c3=O)nn3ccnc23)cc1` (racemic) [Example 285, 4-((2S,2S)-2-(6-(2,4-dioxo-1,2,3,4-tetrahydropyrimidin-5-yl)imidazo[1,2-b]pyridazin-8-yl)cyclopropyl)-N-methylbenzamide], 8.52.
`CNC(=O)c1cccc([C@H]2C[C@@H]2c2cc(-c3c[nH]c(=O)[nH]c3=O)nn3ccnc23)c1` (racemic) [Example 286, 3-((2S,2S)-2-(6-(2,4-dioxo-1,2,3,4-tetrahydropyrimidin-5-yl)imidazo[1,2-b]pyridazin-8-yl)cyclopropyl)-N-methylbenzamide] had a pEC50 of 8.62.
The figure for `CN(C)C(=O)c1cccc([C@H]2C[C@@H]2c2cc(-c3c[nH]c(=O)[nH]c3=O)nn3ccnc23)c1` (racemic) [Example 287, 3-((2S,2S)-2-(6-(2,4-dioxo-1,2,3,4-tetrahydropyrimidin-5-yl)imidazo[1,2-b]pyridazin-8-yl)cyclopropyl)-N,N-dimethylbenzamide] is 7.90; for `CN(C)C(=O)c1ccc([C@H]2C[C@@H]2c2cc(-c3c[nH]c(=O)[nH]c3=O)nn3ccnc23)cc1` (racemic) [Example 288, 4-((2S,2S)-2-(6-(2,4-dioxo-1,2,3,4-tetrahydropyrimidin-5-yl)imidazo[1,2-b]pyridazin-8-yl)cyclopropyl)-N,N-dimethylbenzamide] it is 7.45; for `O=C(c1ccc([C@H]2C[C@@H]2c2cc(-c3c[nH]c(=O)[nH]c3=O)nn3ccnc23)cc1)N1CCC1` (racemic) [Example 289, 5-(8-((2S,2S)-2-(4-(azetidine-1-carbonyl)phenyl)cyclopropyl)imidazo[1,2-b]pyridazin-6-yl)pyrimidine-2,4(1H,3H)-dione] it is 8.14.
The figure for `CC1CN(C(=O)c2ccc([C@H]3C[C@@H]3c3cc(-c4c[nH]c(=O)[nH]c4=O)nn4ccnc34)cc2)C1` (racemic) [Example 290, 5-(8-((2S,2S)-2-(4-(3-methylazetidine-1-carbonyl)phenyl)cyclopropyl)imidazo[1,2-b]pyridazin-6-yl)pyrimidine-2,4(1H,3H)-dione] is 8.02.
As for `O=C(c1ccc([C@H]2C[C@@H]2c2cc(-c3c[nH]c(=O)[nH]c3=O)nn3ccnc23)cc1)N1CC(C(F)(F)F)C1` (racemic) [Example 291, 5-(8-((1S,2S)-2-(4-(3-(trifluoromethyl)azetidine-1-carbonyl)phenyl)cyclopropyl)imidazo[1,2-b]pyridazin-6-yl)pyrimidine-2,4(1H,3H)-dione], the figure is 7.73.
In the case of `O=C(c1ccc([C@H]2C[C@@H]2c2cc(-c3c[nH]c(=O)[nH]c3=O)nn3ccnc23)cc1)N1CC(F)(F)C1` (racemic) [Example 292, 5-(8-((1S,2S)-2-(4-(3,3-difluoroazetidine-1-carbonyl)phenyl)cyclopropyl)imidazo[1,2-b]pyridazin-6-yl)pyrimidine-2,4(1H,3H)-dione], the pEC50 was 8.24.
As for `CC1(C)CN(C(=O)c2ccc([C@H]3C[C@@H]3c3cc(-c4c[nH]c(=O)[nH]c4=O)nn4ccnc34)cc2)C1` (racemic) [Example 293, 5-(8-((2S,2S)-2-(4-(3,3-dimethylazetidine-1-carbonyl)phenyl)cyclopropyl)imidazo[1,2-b]pyridazin-6-yl)pyrimidine-2,4(1H,3H)-dione], the figure is 8.06.
`O=C(c1cccc([C@H]2C[C@@H]2c2cc(-c3c[nH]c(=O)[nH]c3=O)nn3ccnc23)c1)N1CCC1` (racemic) [Example 294, 5-(8-((2S,2S)-2-(3-(azetidine-1-carbonyl)phenyl)cyclopropyl)imidazo[1,2-b]pyridazin-6-yl)pyrimidine-2,4(1H,3H)-dione] showed a pEC50 of 8.88.
The figure for `CC1CN(C(=O)c2cccc([C@H]3C[C@@H]3c3cc(-c4c[nH]c(=O)[nH]c4=O)nn4ccnc34)c2)C1` (racemic) [Example 295, 5-(8-((1S,2S)-2-(3-(3-methylazetidine-1-carbonyl)phenyl)cyclopropyl)imidazo[1,2-b]pyridazin-6-yl)pyrimidine-2,4(1H,3H)-dione] is 8.71; for `O=C(c1cccc([C@H]2C[C@@H]2c2cc(-c3c[nH]c(=O)[nH]c3=O)nn3ccnc23)c1)N1CC(C(F)(F)F)C1` (racemic) [Example 296, 5-(8-((2S,2S)-2-(3-(3-(trifluoromethyl)azetidine-1-carbonyl)phenyl)cyclopropyl)imidazo[1,2-b]pyridazin-6-yl)pyrimidine-2,4(1H,3H)-dione] it is 8.36.
As for `O=C(c1cccc([C@H]2C[C@@H]2c2cc(-c3c[nH]c(=O)[nH]c3=O)nn3ccnc23)c1)N1CC(F)(F)C1` (racemic) [Example 297, 5-(8-((2S,2S)-2-(3-(3,3-difluoroazetidine-1-carbonyl)phenyl)cyclopropyl)imidazo[1,2-b]pyridazin-6-yl)pyrimidine-2,4(1H,3H)-dione], the figure is 8.88; as for `CC1(C)CN(C(=O)c2cccc([C@H]3C[C@@H]3c3cc(-c4c[nH]c(=O)[nH]c4=O)nn4ccnc34)c2)C1` (racemic) [Example 298, 5-(8-((2S,2S)-2-(3-(3,3-dimethylazetidine-1-carbonyl)phenyl)cyclopropyl)imidazo[1,2-b]pyridazin-6-yl)pyrimidine-2,4(1H,3H)-dione], 8.55; as for `O=C(c1ccc([C@H]2C[C@@H]2c2cc(-c3c[nH]c(=O)[nH]c3=O)nn3ccnc23)cc1)N1C[C@@H](F)[C@H](F)C1` (racemic) [Example 299], 7.61.
In the case of `O=C(c1cccc([C@H]2C[C@@H]2c2cc(-c3c[nH]c(=O)[nH]c3=O)nn3ccnc23)c1)N1C[C@@H](F)[C@H](F)C1` (racemic) [Example 300, 5-(8-((2S,2S)-2-(3-((3R,4R)-3,4-difluoropyrrolidine-1-carbonyl)phenyl)cyclopropyl)imidazo[1,2-b]pyridazin-6-yl)pyrimidine-2,4(1H,3H)-dione], the negative-log EC50 (pEC50) is 8.87.
`O=C(c1ccc([C@H]2C[C@@H]2c2cc(-c3c[nH]c(=O)[nH]c3=O)nn3ccnc23)cc1)N1C[C@@H](F)[C@@H](F)C1` (racemic) [Example 301, 5-(8-((2S,2S)-2-(4-((3S,4R)-3,4-difluoropyrrolidine-1-carbonyl)phenyl)cyclopropyl)imidazo[1,2-b]pyridazin-6-yl)pyrimidine-2,4(1H,3H)-dione] gave a pEC50 of 7.72.
As for `O=C(c1cccc([C@H]2C[C@@H]2c2cc(-c3c[nH]c(=O)[nH]c3=O)nn3ccnc23)c1)N1C[C@@H](F)[C@@H](F)C1` (racemic) [Example 302, 5-(8-((2S,2S)-2-(3-((3S,4R)-3,4-difluoropyrrolidine-1-carbonyl)phenyl)cyclopropyl)imidazo[1,2-b]pyridazin-6-yl)pyrimidine-2,4(1H,3H)-dione], the figure is 8.16; as for `O=C(c1ccc([C@H]2C[C@@H]2c2cc(-c3c[nH]c(=O)[nH]c3=O)nn3ccnc23)cc1)N1CC(F)(F)C(F)(F)C1` (racemic) [Example 303, 5-(8-((1S,2S)-2-(4-(3,3,4,4-tetrafluoropyrrolidine-1-carbonyl)phenyl)cyclopropyl)imidazo[1,2-b]pyridazin-6-yl)pyrimidine-2,4(1H,3H)-dione], 7.56; as for `O=C(c1cccc([C@H]2C[C@@H]2c2cc(-c3c[nH]c(=O)[nH]c3=O)nn3ccnc23)c1)N1CC(F)(F)C(F)(F)C1` (racemic) [Example 304, 5-(8-((2S,2S)-2-(3-(3,3,4,4-tetrafluoropyrrolidine-1-carbonyl)phenyl)cyclopropyl)imidazo[1,2-b]pyridazin-6-yl)pyrimidine-2,4(1H,3H)-dione], 8.52.
